In the supplement of paper PMC10307832:

How the values were obtained:
Assay in all cases: relative viability (nuclei count vs DMSO), 5 days (fraction); higher = more cells survive
[1] = compound: O=C(CCCCCCNC(=O)c1cnc(N(c2ccccc2)c2ccccc2)nc1)NO [Ricolinostat] + Cc1cc(Nc2cc(N3CCN(C)CC3)nc(Sc3ccc(NC(=O)C4CC4)cc3)n2)n[nH]1 [Tozasertib] (partner 0.1 µM)
In short: (§1)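 Lung cancer cell lines were seeded in 1536-well plates and dosed by pin tool the next day, with either a single drug or a fixed anchor-drug dose combined with five library-drug doses (not always all listed) spaced in √10 steps. Five days later, one step fixed the cells and stained their nuclei (final 0.05% Triton X-100, 1% formaldehyde, 1 ug/ml Hoechst), and nuclei were counted on 4× images. Relative viability is the nuclei count in treated wells divided by the count in vehicle wells, and each value is the median of duplicate plates.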

[2] = compound: CC1=CN2C(=O)C=C(N=C2C(=C1)C(C)NC3=CC=CC=C3)N4CCOCC4 [TGX 221] + Cc1nc(NC(=O)N2CCC[C@H]2C(N)=O)sc1-c1ccnc(C(C)(C)C(F)(F)F)c1 [Alpelisib] (partner 2 µM)
In short: as §1

[3] = compound: CC1=CN2C(=O)C=C(N=C2C(=C1)C(C)NC3=CC=CC=C3)N4CCOCC4 [TGX 221] + O=C(CCCCCCC(=O)Nc1ccccc1)NO [Vorinostat] (partner 1 µM)
In short: as §1

[4] = compound: O=C(CCCCCCNC(=O)c1cnc(N(c2ccccc2)c2ccccc2)nc1)NO [Ricolinostat] + Cc1nc(Nc2ncc(C(=O)Nc3c(C)cccc3Cl)s2)cc(N2CCN(CCO)CC2)n1 [Dasatinib] (partner 0.075 µM)
In short: as §1

## EMC-BAC-2
[1]; first compound 0.08 µM
  relative viability: 0.318
[1]; first compound 0.253 µM
  relative viability: 0.234
[1]; first compound 0.8 µM
  relative viability: 0.204
[1]; first compound 2.53 µM
  relative viability: 0.206
[2]; first compound 0.08 µM
  relative viability: 0.735
[2]; first compound 0.253 µM
  relative viability: 0.597
[2]; first compound 0.8 µM
  relative viability: 0.679
[2]; first compound 2.53 µM
  relative viability: 0.623
[2]; first compound 8 µM
  relative viability: 0.629
[3]; first compound 0.08 µM
  relative viability: 0.414
[3]; first compound 0.253 µM
  relative viability: 0.461
[3]; first compound 0.8 µM
  relative viability: 0.426
[3]; first compound 2.53 µM
  relative viability: 0.493
[3]; first compound 8 µM
  relative viability: 0.424
[4]; first compound 0.08 µM
  relative viability: 0.316
[4]; first compound 0.253 µM
  relative viability: 0.291
[4]; first compound 0.8 µM
  relative viability: 0.27
[4]; first compound 2.53 µM
  relative viability: 0.242

## H3255
[1]; first compound 0.08 µM
  relative viability: 0.566
[1]; first compound 0.253 µM
  relative viability: 0.623
[1]; first compound 0.8 µM
  relative viability: 0.61
[1]; first compound 2.53 µM
  relative viability: 0.558
[2]; first compound 0.08 µM
  relative viability: 0.568
[2]; first compound 0.253 µM
  relative viability: 0.581
[2]; first compound 0.8 µM
  relative viability: 0.534
[2]; first compound 2.53 µM
  relative viability: 0.448
[2]; first compound 8 µM
  relative viability: 0.378
[3]; first compound 0.08 µM
  relative viability: 0.779
[3]; first compound 0.253 µM
  relative viability: 0.823
[3]; first compound 0.8 µM
  relative viability: 0.816
[3]; first compound 2.53 µM
  relative viability: 0.782
[3]; first compound 8 µM
  relative viability: 0.845
[4]; first compound 0.08 µM
  relative viability: 0.347
[4]; first compound 0.253 µM
  relative viability: 0.308
[4]; first compound 0.8 µM
  relative viability: 0.318
[4]; first compound 2.53 µM
  relative viability: 0.308

## PC-14
[1]; first compound 0.08 µM
  relative viability: 0.61
[1]; first compound 0.253 µM
  relative viability: 0.553
[1]; first compound 0.8 µM
  relative viability: 0.527
[1]; first compound 2.53 µM
  relative viability: 0.418
[2]; first compound 0.08 µM
  relative viability: 1.01
[2]; first compound 0.253 µM
  relative viability: 0.822
[2]; first compound 0.8 µM
  relative viability: 0.817
[2]; first compound 2.53 µM
  relative viability: 0.919
[2]; first compound 8 µM
  relative viability: 0.857
[3]; first compound 0.08 µM
  relative viability: 0.682
[3]; first compound 0.253 µM
  relative viability: 0.626
[3]; first compound 0.8 µM
  relative viability: 0.687
[3]; first compound 2.53 µM
  relative viability: 0.748
[3]; first compound 8 µM
  relative viability: 0.662
[4]; first compound 0.08 µM
  relative viability: 0.243
[4]; first compound 0.253 µM
  relative viability: 0.248
[4]; first compound 0.8 µM
  relative viability: 0.267
[4]; first compound 2.53 µM
  relative viability: 0.233

## NCI-H661
[1]; first compound 0.08 µM
  relative viability: 0.354
[1]; first compound 0.253 µM
  relative viability: 0.364
[1]; first compound 0.8 µM
  relative viability: 0.288
[1]; first compound 2.53 µM
  relative viability: 0.281
[2]; first compound 0.08 µM
  relative viability: 0.45
[2]; first compound 0.253 µM
  relative viability: 0.52
[2]; first compound 0.8 µM
  relative viability: 0.201
[2]; first compound 2.53 µM
  relative viability: 0.559
[2]; first compound 8 µM
  relative viability: 0.516
[3]; first compound 0.08 µM
  relative viability: 0.794
[3]; first compound 0.253 µM
  relative viability: 0.755
[3]; first compound 0.8 µM
  relative viability: 0.78
[3]; first compound 2.53 µM
  relative viability: 0.925
[3]; first compound 8 µM
  relative viability: 0.785
[4]; first compound 0.08 µM
  relative viability: 0.795
[4]; first compound 0.253 µM
  relative viability: 0.88
[4]; first compound 0.8 µM
  relative viability: 0.889
[4]; first compound 2.53 µM
  relative viability: 0.731

## HARA
[1]; first compound 0.08 µM
  relative viability: 0.106
[1]; first compound 0.253 µM
  relative viability: 0.16
[1]; first compound 0.8 µM
  relative viability: 0.076
[1]; first compound 2.53 µM
  relative viability: 0.0848
[2]; first compound 0.08 µM
  relative viability: 0.778
[2]; first compound 0.253 µM
  relative viability: 0.659
[2]; first compound 0.8 µM
  relative viability: 0.803
[2]; first compound 2.53 µM
  relative viability: 0.574
[2]; first compound 8 µM
  relative viability: 0.584
[3]; first compound 0.08 µM
  relative viability: 0.508
[3]; first compound 0.253 µM
  relative viability: 0.475
[3]; first compound 0.8 µM
  relative viability: 0.575
[3]; first compound 2.53 µM
  relative viability: 0.517
[3]; first compound 8 µM
  relative viability: 0.471
[4]; first compound 0.08 µM
  relative viability: 0.271
[4]; first compound 0.253 µM
  relative viability: 0.224
[4]; first compound 0.8 µM
  relative viability: 0.217
[4]; first compound 2.53 µM
  relative viability: 0.192

## COR-L23
[1]; first compound 0.08 µM
  relative viability: 0.207
[1]; first compound 0.253 µM
  relative viability: 0.193
[1]; first compound 0.8 µM
  relative viability: 0.162
[1]; first compound 2.53 µM
  relative viability: 0.121
[2]; first compound 0.08 µM
  relative viability: 0.807
[2]; first compound 0.253 µM
  relative viability: 0.659
[2]; first compound 0.8 µM
  relative viability: 0.759
[2]; first compound 2.53 µM
  relative viability: 0.722
[2]; first compound 8 µM
  relative viability: 0.742
[3]; first compound 0.08 µM
  relative viability: 0.425
[3]; first compound 0.253 µM
  relative viability: 0.409
[3]; first compound 0.8 µM
  relative viability: 0.436
[3]; first compound 2.53 µM
  relative viability: 0.469
[3]; first compound 8 µM
  relative viability: 0.336
[4]; first compound 0.08 µM
  relative viability: 0.373
[4]; first compound 0.253 µM
  relative viability: 0.477
[4]; first compound 0.8 µM
  relative viability: 0.471
[4]; first compound 2.53 µM
  relative viability: 0.242

## SK-MES-1
[1]; first compound 0.08 µM
  relative viability: 0.833
[1]; first compound 0.253 µM
  relative viability: 0.795
[1]; first compound 0.8 µM
  relative viability: 0.877
[1]; first compound 2.53 µM
  relative viability: 0.628
[2]; first compound 0.08 µM
  relative viability: 0.843
[2]; first compound 0.253 µM
  relative viability: 0.628
[2]; first compound 0.8 µM
  relative viability: 0.785
[2]; first compound 2.53 µM
  relative viability: 0.549
[2]; first compound 8 µM
  relative viability: 0.476
[3]; first compound 0.08 µM
  relative viability: 1.03
[3]; first compound 0.253 µM
  relative viability: 0.997
[3]; first compound 0.8 µM
  relative viability: 1.16
[3]; first compound 2.53 µM
  relative viability: 0.987
[3]; first compound 8 µM
  relative viability: 0.894
[4]; first compound 0.08 µM
  relative viability: 0.25
[4]; first compound 0.253 µM
  relative viability: 0.288
[4]; first compound 0.8 µM
  relative viability: 0.451
[4]; first compound 2.53 µM
  relative viability: 0.44

## NCI-H1395
[1]; first compound 0.253 µM
  relative viability: 0.835
[1]; first compound 0.8 µM
  relative viability: 0.741
[1]; first compound 2.53 µM
  relative viability: 0.671
[2]; first compound 0.08 µM
  relative viability: 0.935
[2]; first compound 0.253 µM
  relative viability: 1.16
[2]; first compound 0.8 µM
  relative viability: 0.89
[2]; first compound 2.53 µM
  relative viability: 0.514
[2]; first compound 8 µM
  relative viability: 0.584
[3]; first compound 0.08 µM
  relative viability: 0.601
[3]; first compound 0.253 µM
  relative viability: 0.537
[3]; first compound 0.8 µM
  relative viability: 0.553
[3]; first compound 2.53 µM
  relative viability: 0.557
[3]; first compound 8 µM
  relative viability: 0.664
[4]; first compound 0.253 µM
  relative viability: 0.383
[4]; first compound 0.8 µM
  relative viability: 0.368
[4]; first compound 2.53 µM
  relative viability: 0.403

## NCI-H2170
[1]; first compound 0.08 µM
  relative viability: 0.758
[1]; first compound 0.253 µM
  relative viability: 0.61
[1]; first compound 0.8 µM
  relative viability: 0.622
[1]; first compound 2.53 µM
  relative viability: 0.723
[2]; first compound 0.08 µM
  relative viability: 0.754
[2]; first compound 0.253 µM
  relative viability: 0.704
[2]; first compound 0.8 µM
  relative viability: 0.747
[2]; first compound 2.53 µM
  relative viability: 0.7
[2]; first compound 8 µM
  relative viability: 0.682
[3]; first compound 0.08 µM
  relative viability: 0.754
[3]; first compound 0.253 µM
  relative viability: 0.758
[3]; first compound 0.8 µM
  relative viability: 0.767
[3]; first compound 2.53 µM
  relative viability: 0.759
[3]; first compound 8 µM
  relative viability: 0.831
[4]; first compound 0.08 µM
  relative viability: 0.537
[4]; first compound 0.253 µM
  relative viability: 0.733
[4]; first compound 0.8 µM
  relative viability: 0.626
[4]; first compound 2.53 µM
  relative viability: 0.666
